Results as given in patent EP0056616A2, “Cycloheptene derivatives, process for their preparation, and pharmaceuticals containing them” (F. HOFFMANN-LA ROCHE & CO. Aktiengesellschaft, priority 1981, dated 1982).

Key:
[1] = Acute toxicity after single oral administration to mice; conditions: mouse, in vivo, read-out: DL50 (the source's name)
From the text: Die nachfolgende Tabelle enthält für zwei repräsentative Vertreter der durch die allgemeine Formel I umfassten Verbindungsklasse die ED50-Werte, sowie Angaben über deren akute Toxizität bei einmaliger oraler Verabreichung an Mäusen (DL50 in m^g/k^g).

Histamin-H1 = test: Protection against lethal histamine dihydrochloride dose (histamine H1 antagonism) in guinea pigs; format: in vivo, Meerschweinchen; conditions: 10 per dose, test substance orally 1 hour before lethal Histamin-dihydrochlorid (10 mg/kg s.c.), dose protecting 50% of animals from death, probit method
From the text: Ueberraschenderweise hat es sich gezeigt, dass die erfindungsgemässen Produkte die H1-Wirkung des Histamins zu hemmen vermögen. Die Verbindungen der allgemeinen Formel I und ihre pharmazeutisch annehmbaren Säureadditionssalze sind somit wertvolle Histamin-H antagonistische Wirkstoffe und eignen sich insbesondere zur Bekämpfung bzw. Verhütung von allergischen Reaktionen, wie beispielsweise Urtikaria, Heuschnupfen, Anaphylaxie und Arzneimittelüberempfindlichkeit. Diese Histamin-H1 antagonistischen Eigenschaften können wie nachfolgend beschrieben an männlichen und weiblichen, 240 bis 300 g schweren Meerschweinchen (SPF, Füllinsdorf) ermittelt werden:
Den Versuchstieren (10 pro Dosis) wird während 24 Stunden vor Versuchsbeginn das Futter entzogen, wobei Wasser ad libitum erhältlich ist. Eine Stunde nach oraler Verabreichung einer Lösung der Testsubstanz (10 ml/kg) erhalten die Versuchstiere eine letale Dosis von Histamin-dihydrochlorid (10 mg/kg s.c.). Ungeschützte Tiere, d.h. nur mit Histamin-dihydrochlorid behandelte Tiere, sterben innerhalb einer Stunde. Nach Auszählen der überlebenden, geschützten'Tiere wird die ED50 nach der Probitmethode ermittelt. Die ED50 ist diejenige Dosis, die notwendig ist, um 50% der mit der Testsubstanz behandelten Tiere vor dem Tod zu schützen.

Compound | LD50 [1] [mg/kg] | ED50 (Histamin-H1)
Cc1cccc2c1CCC1=C(CC=CC1)C2CCCN(C)C (stereo not shown) [A, 4,5,10,11-Tetrahydro-N,N,9-trimethyl-1H-dibenzo[a,d]-cyclohepten-5-propylamin] | 600 to 1200 | 0,4 mg/kg p.o.
Cc1cccc2c1CCC1=C(CCCC1)C2CCCN(C)C (stereo not shown) [B, 2,3,4,5,10,11-Hexahydro-N,N,9-trimethyl-1H-dibenzo-[a,d]cyclohepten-5-propylamin] | 250 to 500 | 0,9 mg/kg p.o.
